Reference: PubChem BioAssay (NCI)
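Following 48 hours of exposure in 96-well plates, responses at five concentrations were used to interpolate endpoints linearly. GI50 marks 50% less growth. TGI marks complete inhibition of growth.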

Tests used:
Assay in all cases: NCI anticancer screen, dose series, 48 h
CAKI-1 renal = system: CAKI-1 renal
CCRF-CEM leukemia = system: CCRF-CEM leukemia
HL-60(TB) leukemia = system: HL-60(TB) leukemia
HOP-62 NSCLC = system: HOP-62 NSCLC
IGROV1 ovarian = system: IGROV1 ovarian
MCF7 breast = system: MCF7 breast
OVCAR-3 ovarian = system: OVCAR-3 ovarian
SK-MEL-5 melanoma = system: SK-MEL-5 melanoma
SN12C renal = system: SN12C renal
SR leukemia = system: SR leukemia

`O=C(Nc1ncc(Cc2ccccc2Cl)s1)c1ccc2c(c1)OCCO2` gave a GI50 (CAKI-1 renal) of 306 nM, a TGI (CAKI-1 renal) greater than 47.9 µM and a GI50 (CCRF-CEM leukemia) of 360 nM. It also gave a TGI (CCRF-CEM leukemia) greater than 100 µM, a GI50 (HL-60(TB) leukemia) of 396 nM and a GI50 (HOP-62 NSCLC) of 592 nM. The TGI (HOP-62 NSCLC) was greater than 82.9 µM, the GI50 (IGROV1 ovarian) was 498 nM and the TGI (IGROV1 ovarian) was greater than 57.8 µM. It also gave a GI50 (MCF7 breast) of 320 nM, a TGI (MCF7 breast) greater than 100 µM and a GI50 (OVCAR-3 ovarian) of 285 nM. The TGI (OVCAR-3 ovarian) was 1070 nM, the GI50 (SK-MEL-5 melanoma) was 334 nM and the TGI (SK-MEL-5 melanoma) was 1810 nM. It also gave a GI50 (SN12C renal) of 614 nM, a TGI (SN12C renal) greater than 94 µM and a GI50 (SR leukemia) of 206 nM. For the same compound, the TGI (SR leukemia) was greater than 100 µM.
